Results taken from patent US8445281B2, “In vitro exposure of immature oocytes to BDNF enhances generation of embryonic stem cells” (The Board of Trustees of the Leland Stanford Junior …, priority 2006, dated 2013).

B1: NT-3: human neurotrophin-3 (R & D Systems) (protein, UniProt P20783 139-257, looked up)
Neurotrophin-3: YAEHKSHRGEYSVCDSESLWVTDKSSAIDIRGHQVTVLGEIKTGNSPVKQYFYETRCKEARPVKNGCRGIDDKHWNSQCKTSQTYVRALTSENNKLVGWRWIRIDTSCVCALSRKIGRT
B2: NGF: mouse nerve growth factor (R & D Systems) (protein, UniProt P01139 122-241, looked up)
Beta-nerve growth factor: SSTHPVFHMGEFSVCDSVSVWVGDKTTATDIKGKEVTVLAEVNINNSVFRQYFFETKCRASNPVESGCRGIDSKHWNSYCTTTHTFVKALTTDEKQAAWRFIRIDTACVCVLSRKATRRG
B3: BDNF: recombinant human BDNF (Pepro-Tech), neurotrophin, ligand of TrkB (protein)
chain: MTILFLTMVISYFGCMKAAPMKEANIRGQGGLAYPGVRTHGTLESFTVNGPKAGSRGLTSLADTFEHVIEELLDEDQKVRPNEENNKDADLYTSRVMLSSQVPLEPFTPLLFLLEEYKNYLDAANMSMRVRRHSDPARRGELSVCDSISEWVTAADKKTAVDMSGGTFTVTVLEKVPVSKGQLKQYFYETKCNPMGYTKEGCRGIDKRHWNSQCRTTQSYVRALTMDSFTKKRIGWRFIRIDTSCVCTLTIKRGR
modifications: human
notes: recombinant human BDNF (Pepro-Tech), neurotrophin, ligand of TrkB

Key:
Trk receptor [1] = test: In vivo first polar body extrusion by ovulated oocytes; set-up: species or system mouse; conditions: PMSG-primed mice, hCG with i.p. compound, 12 h after hCG
Method: (§1) In Vivo Analysis. […] For negative controls, the plasma membrane nonsoluble K252b was used. Twelve hours after hCG injection, ovulated COCs were obtained from the oviducts. After treatment with hyaluronidase (Specialty Media) for 1-2 min, oocytes were separated from cumulus cells and the proportion of oocytes showing first polar body extrusion was evaluated. To evaluate the role of BDNF in the conditioning of oocytes for early embryo development, immature mice were treated with PMSG, followed by hCG as described above. […] Fertilized oocytes were separated from cumulus cells, washed three times in M2 medium, and cultured for 5 days in modified M16 medium. Embryonic development was monitored daily, and the progression of fertilized eggs into preimplantation embryos was assessed.

Trk receptor [2] = test: In vivo treatment, progression of zygotes into blastocysts in vitro; set-up: species or system mouse; conditions: 10 μg i.p. at 0, 4, 8 h after hCG; for decrease in number of cells in the blastocysts / suppression of development of zygotes into blastocyst stage embryos: fertilized oocytes cultured 5 days
Method: as §1

[3] = tested on: oocytes (cumulus oocyte complexes); test: First polar body extrusion by oocytes in cultured COCs; format: cell-based, mouse; conditions: for effect on the stimulatory effect of BDNF on first polar body extrusion: COCs, cotreatment with BDNF; for first polar body extrusion in cultured oocytes: COCs cultured 20 h without FBS, NGF and NT-3 at 10 ng/ml
Method: Evaluation of First Polar Body Extrusion. For evaluating the transition from metaphase I stage to metaphase II (MII) stage oocytes, COCs were obtained from mouse ovaries 48 h after PMSG treatment by puncturing the largest follicles in M2 medium (Specialty Media, Phillipsburg, N.J.). COCs were washed twice, transferred to modified M16 medium (Specialty Media) without FBS, and cultured with or without different doses of BDNF, mouse nerve growth factor (NGF; R & D Systems), or human neurotrophin-3 (NT-3) (R & D Systems) for 20 h at 37° C. in 5% CO2/95% air. Some COCs were also cultured with BDNF with or without the TrkB ectodomain (R & D Systems), pan-specific Trk receptor inhibitor K252a (Calbiochem), or K252b. The occurrence of first polar body extrusion in the oocyte was examined after removing cumulus cells by using a small-bore pipette under Hoffman contrast microscopy (Nikon).

MII oocytes = test: Glutathione content in oocytes; format: cell-based, mouse; conditions: COCs treated 16 h
Method: FIGS. 4A-E depict BDNF conditioning of oocytes for development into preimplantation embryos. FIG. 4A is a bar graph indicating the percentage of MII oocytes that developed to two-cell or blastocyst-stage embryos. Specifically, COCs obtained from preovulatory follicles were cultured without (control) or with BDNF (3 ng/ml) for 16 h. After progression to the MII stage, oocytes were inseminated and cultured for 5 days more without hormones. The percentage of MII oocytes that developed to two-cell or blastocyst-stage embryos were evaluated (n=5, 34-95 oocytes per experiment). FIG. 4B indicates the effects of BDNF treatment on glutathione (GSH) content in oocytes. After treatment of COCs for 16 h without (control, C) or with BDNF, glutathione levels in oocytes at MII oocytes were evaluated (mean±SEM, n=6). FIG. 4C depicts the effects of K252a treatment in vivo on the progression of zygotes into blastocysts in vitro. […] After initial injection, mice were allowed to mate with fertile males. Fertilized oocytes were cultured for 5 days, and the number of blastocyst embryos was evaluated. FIG. 4D depicts the effects of K252a treatment on the number of cells in the blastocysts. […]
Because the oocyte content of glutathione is important to sperm nuclear decondensation, the glutathione concentration in oocytes also was evaluated. […]

[4] = tested on: oocytes of preovulatory follicles; test: Preovulatory follicle culture, GVBD of oocytes; format: cell-based, mouse; conditions: cultured preovulatory follicles
Method: Follicle Cultures. Preovulatory follicles were excised from mouse ovaries 48 h after PMSG treatment and cultured to examine nuclear maturation of oocytes (Kawamura et al. (2004) Proc. Natl. Acad. Sci. USA 101, 7323-7328). […] The vials were flushed at the start of the culture with O2/N2 (at a 1:1 ratio), sealed, and cultured at 37° C. with gentle shaking for 6 h. After culture, cumulus oocyte complexes (COCs) were isolated, and, after cumulus cells were removed, oocytes were examined for the occurrence of GVBD.

[5] = tested on: oocytes (cumulus oocyte complexes); test: In vitro maturation, fertilization and early embryonic development; format: cell-based, mouse
Method: In Vitro Maturation, Fertilization, and Early Embryonic Development. We performed in vitro maturation of oocytes followed by in vitro fertilization as previously described, with slight modifications. COCs from PMSG-primed mice were obtained in the M2 medium supplemented with 5% FBS before culturing in minimum essential media-α (Invitrogen) supplemented with Earle's salts, 10 μg/ml streptomycin sulfate, 75 μg/ml penicillin G, and 5% FBS in the presence or absence of 3 ng/ml BDNF at 37° C. in 5% CO2/95% air. After 16 h of treatment, cumulus cells were removed and the oocytes were examined and classified according to their developmental stage (germinal vesicle, metaphase I, or MII). MII-stage oocytes were inseminated with sperm from B6D2F1 males and incubated for 4 h at 37° C. in 5% CO2/95% air. After in vitro fertilization, fertilized oocytes were recovered, washed three times, and cultured in human tubal fluid medium (Specialty Media). The following morning, two-cell stage embryos were collected and cultured in 2 ml of modified M16 medium for 5 days more up to the blastocyst stage at 37° C. in 5% CO2/95% air. Embryonic development was monitored daily by Hoffman modulation contrast microscopy, and the progression of fertilized eggs to preimplantation embryos was assessed.

[6] = pretreatment 3 ng/ml BDNF 16 h, then in vitro fertilization without BDNF

Molecule	inhibition of first polar body extrusion by ovulated oocytes (Trk receptor [1])	number of ovulated oocytes per animal (Trk receptor [1])	decrease in number of cells in the blastocysts (Trk receptor [2])	suppression of development of zygotes into blastocyst stage embryos (Trk receptor [2])	effect on the stimulatory effect of BDNF on first polar body extrusion [3]	first polar body extrusion in cultured oocytes [3]	also measured
COC(=O)[C@@]1(O)C[C@H]2O[C@]1(C)n1c3ccccc3c3c4c(c5c6ccccc6n2c5c31)C(=O)NC4 [K252a]	30%	37.8±5.3	51%	72%	suppressed	–	number of fertilized oocytes vs control (Trk receptor [2]; oocytes collected 22 h after hCG): did not differ
CC12OC(CC1(O)C(=O)O)n1c3ccccc3c3c4c(c5c6ccccc6n2c5c31)C(=O)NC4 (stereo not shown) [K252b]	ineffective	38.4±8.7	not	ineffective	not	–	–
TrkB ectodomain: TrkB ectodomain (R & D Systems), antagonises BDNF stimulation	–	–	–	–	blocked	ineffective	–
B1	–	–	–	–	–	not	–
B2	–	–	–	–	–	not	–
B3	–	–	–	–	–	increased	glutathione content in MII oocytes (MII oocytes): increased; cumulus cell expansion [4]: did not induce; induction of GVBD in oocytes ([4]; 6 h, 5 μg/ml LH or BDNF): not and lack of effect; increase in proportion of oocytes showing first polar body extrusion (MII-stage oocytes) ([5]; COCs, 3 ng/ml BDNF, 16 h, 5% FBS): more than 2 fold; increase in proportion of MII oocytes that developed into blastocyst-stage embryos [5, 6]: 5 fold; increase in proportion of MII oocytes that developed into two-cell embryos [5, 6]: 2 fold
